Reference: ChEMBL document CHEMBL5608141, “Identification of compartment-specific drug sensitivities in CRC organoid-stroma co-cultures” (2024)

Legend:
Assay type in all cases: functional, Homo sapiens
Set-up in all cases: dose or concentration left out as unconfirmed
[1] = system: Colon cancer organoid; experiment: Identification of compartment-specific drug sensitivities in O06 CRC organoid-stroma F06 CAF co-cultures. Organoid is transduced with Lucferase2-P2A-EGFP lentivirus, fibroblast with Renilla-dsRed lentivirus. Dual-Glo Luciferase assay is used to report viability data.
[2] = system: Colon cancer organoid; experiment: Identification of compartment-specific drug sensitivities in O20 CRC organoid-stroma F20 CAF co-cultures. Organoid is transduced with Lucferase2-P2A-EGFP lentivirus, fibroblast with Renilla-dsRed lentivirus. Dual-Glo Luciferase assay is used to report viability data.
[3] = system: Colon cancer organoid; experiment: Identification of compartment-specific drug sensitivities in O14 CRC organoid-stroma F14 CAF co-cultures. Organoid is transduced with Lucferase2-P2A-EGFP lentivirus, fibroblast with Renilla-dsRed lentivirus. Dual-Glo Luciferase assay is used to report viability data.
[4] = Transduced with Lucferase2-P2A-EGFP lentivirus
[5] = Transduced with Renilla-dsRed lentivirus

Structure (SMILES) | Cell Viability [1, 4] [%] | Cell Viability [1, 5] [%] | Cell Viability [2, 4] [%] | Cell Viability [2, 5] [%] | Cell Viability [3, 4] [%] | Cell Viability [3, 5] [%]
Cl.Cl.Cl.c1ccc(N2CCN(Cc3nc4ccccc4[nH]3)CC2)nc1 | 46.7197 | 192.419 | 41.4322 | 124.541 | 99.1029 | 116.587
O=C(Nc1cccnn1)N1CCC(=Cc2cccc(Oc3ccc(C(F)(F)F)cn3)c2)CC1 | 103.919 | 125.543 | 75.4997 | 114.419 | 96.3845 | 120.944
COc1ccc(Cn2ccc3ccc(C(=O)NO)cc32)cc1 | 111.578 | 129.424 | 177.336 | 111.53 | 104.237 | 105.297
COc1ccccc1S(=O)(=O)Nc1ccc2c(c1)CN(C)C(=O)N2 | 75.1061 | 112.248 | 112.453 | 99.8859 | 127.49 | 84.3735
Cc1cc(C)cc(C(=O)NOCCCCCC(=O)NO)c1 | 13.8956 | 454.718 | 15.4081 | 402.959 | 50.2494 | 170.815
CCn1cc(-c2cccc(C(F)(F)F)c2)c2sc(C(=N)NC3CCS(=O)(=O)CC3)cc2c1=O | 95.4713 | 165.165 | 61.0963 | 124.144 | 135.151 | 119.275
CCCOc1ccn2c(C(C)=O)cc(-c3cccc(OC)c3)c2c1 | 110.241 | 146.669 | 77.121 | 110.044 | 85.0656 | 86.803
COc1cc2c(cc1NS(=O)(=O)c1ccc(Br)cc1C)n(C)c(=O)n2C | 53.0589 | 146.987 | 86.7229 | 193.757 | 88.9015 | 103.244
Clc1cccc(-c2nnnn2Cc2cccnc2)c1Cl | 149.518 | 281.873 | 106.259 | 101.74 | 96.2273 | 101.208
Cc1nc(N2CC[C@H](O)C2)ncc1-c1cc(C(F)(F)F)cc2[nH]ncc12 | 124.32 | 144.84 | 47.2711 | 153.575 | 76.9456 | 116.548
C[C@@H]1CC(=O)Nc2cccc(-c3ccc4c(c3)c(-c3cnn(C)c3)nn4C)c2N1 | 96.7982 | 166.358 | 69.4002 | 148.573 | 127.46 | 126.975
CN1C[C@H](Nc2cnn(C)c(=O)c2Br)C[C@H](c2ccccc2)C1 | 52.3497 | 181.327 | 160.124 | 106.068 | 132.078 | 105.854
O=C1CCc2cc(Nc3cc(OC4CCOCC4)c([N+](=O)[O-])cc3Cl)ccc2N1 | 74.579 | 100.938 | 150.133 | 114.972 | 98.9348 | 106.803
CO[C@H]1CNC[C@@H](OCC2CCC(F)(F)CC2)[C@@H]1Nc1ncc(-c2cncc(C)c2)c2cc(C)c(=O)[nH]c12 | 95.0954 | 138.476 | 171.771 | 122.949 | 145.9 | 102.552
Cc1sc2c(c1C)C(c1ccc(Cl)cc1)=N[C@@H](CC(=O)NCCCCCCCCNC(=O)COc1cccc3c1C(=O)N(C1CCC(=O)NC1=O)C3=O)c1nnc(C)n1-2 (stereo partly drawn) | 5.4511 | 19.3995 | 2.01 | 74.9854 | 5.905 | 10.8389
Cl.O=C(O)c1cc(-c2ccc(C3CCNCC3)cc2)c2ccc(-c3ccc(C(F)(F)F)cc3)cc2c1 | 107.895 | 117.47 | 106.654 | 101.384 | 158.935 | 99.9399
Cc1c(C(=O)O)cc(-c2ccc(C3CCNCC3)cc2)c2ccc(-c3ccc(C(F)(F)F)cc3)cc12.Cl | 69.2582 | 93.9723 | 115.772 | 99.1911 | 68.1012 | 79.713

Structure (SMILES) | Cell Viability [1, 4] [%] | Cell Viability [1, 5] [%] | Cell Viability [2, 4] [%] | Cell Viability [2, 5] [%] | Cell Viability [3, 4] [%] | Cell Viability [3, 5] [%]
C[C@@H](c1cccc(CN)c1)n1cc(Cl)cc(C(N)=O)c1=N.Cl | 104.535 | 114.984 | 85.1763 | 93.567 | 112.906 | 94.626
Cc1c(Nc2ccc(S(=O)(=O)N3CCN(C)CC3)cc2F)nc2ccc(Nc3cnn(C4CC4)c3)cn2c1=O | 81.8172 | 120.859 | 118.006 | 135.679 | 108.37 | 91.7144
C[C@@H](c1cccc(C#N)c1)n1cc(Cl)cc(C(N)=O)c1=N.Cl | 92.5611 | 127.503 | 64.4613 | 72.4154 | 101.632 | 106.42
O=C(NCc1ccccc1)c1ccc(S(=O)(=O)NCc2ccccc2)cc1 | 32.2843 | 131.443 | 89.1581 | 96.8328 | 108.82 | 110.313
O=C(Nc1cccnn1)N1CC(C/C=C/c2cncc(Oc3ccc(C(F)(F)F)cn3)n2)C1 | 130.234 | 92.9489 | 97.9448 | 112.944 | 132.074 | 108.992
Cc1c(Nc2ccc(S(=O)(=O)N3CCN(C)CC3)cc2F)nc2ccc(-c3cnn(C4CC4)c3)cn2c1=O | 106.525 | 138.146 | 100.446 | 149.535 | 116.873 | 77.7436
CCOC(=O)CCNc1cc(N2CCc3ccccc3CC2)nc(-c2cccnc2)n1 | 130.773 | 124.082 | 102.371 | 131.422 | 87.4597 | 97.4259
C[C@H]1CCCN1Cc1nc2cc(NC(=O)c3ccc4cnccc4c3)ccc2[nH]1 | 122.515 | 131.721 | 98.7446 | 149.477 | 76.6817 | 109.65
Cc1cc(C)cc([C@@H]2c3cc(C)ccc3NC(=O)CN2C(=O)c2ccc(Br)s2)c1 | 107.168 | 464.523 | 135.909 | 541.943 | 110.484 | 405.65
Cc1cc(C)cc([C@H]2c3cc(C)ccc3NC(=O)CN2C(=O)c2ccc(Br)s2)c1 | 94.0417 | 115.465 | 134.675 | 98.7461 | 153.941 | 101.442
COCCN1CCC(c2cc(CN(C)C(=O)c3cccc(Oc4ccccc4)c3)ccn2)CC1 | 91.2389 | 131.922 | 94.6976 | 115.605 | 131.353 | 104.266
CC(=O)c1cc(-c2ccccc2OCC2CC2)c2ncccn12 | 107.249 | 181.775 | 91.2961 | 121.201 | 107.478 | 95.946
Cc1cc(CN)cc(C)c1-c1ncn(C)c1-c1cncn1C | 121.461 | 141.638 | 127.793 | 117.48 | 88.8994 | 94.9152
CC(C)Oc1ccc(-c2c[nH]cc2CN(C)CCO)cc1 | 112.392 | 114.959 | 114.429 | 121.653 | 129.064 | 102.719
CCNC(=O)c1cc2c(N3CCOCC3C)ccnc2[nH]1 (stereo not drawn) | 130.766 | 119.513 | 144.452 | 100.256 | 143.994 | 130.326
Cl.Cn1cncc1[C@](O)(COc1ccc(C#N)cc1-c1ccc(OC(F)(F)F)cc1)c1ccc(C#N)cc1 | 46.0933 | 149.066 | 15.3114 | 150.357 | 31.1337 | 75.4889
